These results are taken from US20260295053A1, “COMPOUNDS FOR DEGRADATION AND INHIBITION OF KRAS (G12D) PROTEIN” (Shenzhen Ionova Life Science Co., Ltd., priority 2023, published 2026).

One test addresses T1, KRAS (G12D) (Homo sapiens, UniProt P01116, G12D).
T1 construct: in-cell western with KRAS G12D antibody after 24 h
The test can be described thus: KRAS (G12D) cellular degradation assay in AsPC-1 cells. In kind it is cell-based. Conditions: 24 hours, antibody fluorescence (Odyssey CLX), DC50 half-maximal degradation concentration. The gist of the method:
(§1)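 Proliferation IC50 comes from CellTiter Glo luminescence after 6 days' exposure of AsPC-1 (3,500 cells/well) to 1:3 dilutions from […] to 1.5 nM. KRAS G12D DC50 derives from in-cell immunofluorescence normalised to β-actin after 24 h treatment of near-confluent AsPC-1 cells over the same range.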

The subject of a further test is AsPC-1 cells. The test can be described thus: AsPC-1 cell proliferation assay (CellTiter Glo). It counts as cell-based. Conditions: 6 days. The essentials: as §1
(In ATP-based viability assays light output follows the ATP content of the culture.)

T1 sequence (P01116 1-188 isoform P01116-2 G12D): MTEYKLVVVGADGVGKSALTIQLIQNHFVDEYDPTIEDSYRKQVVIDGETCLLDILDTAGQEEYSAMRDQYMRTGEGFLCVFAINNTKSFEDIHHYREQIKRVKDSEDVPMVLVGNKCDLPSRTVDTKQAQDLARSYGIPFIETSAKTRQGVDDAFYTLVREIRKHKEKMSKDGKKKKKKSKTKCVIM

Consider `CCn1nccc1-c1ccc([C@@H](NC(=O)[C@@H]2C[C@@H](O)CN2C(=O)[C@H](C(C)C)n2cc(-c3ccc(COc4c(-c5c(C)c(F)cc6[nH]ncc56)c(C5CC5)cc5c(N6C[C@@H]7C[C@H]6CN7)nc(OC6CC7(CCOC7)C6)nc45)cc3)nn2)[C@H](C)O)cc1` (stereo partly drawn) [Example 114, (2S,4R)-1-((2S)-2-(4-(4-(((2-((6-oxaspiro[3.4]octan-2-yl)oxy)-4-((1S,4S)-2,5-diazabicyclo[2.2.1]heptan-2-yl)-6-cyclopropyl-7-(6-fluoro-5-methyl-1H-indazol-4-yl)quinazolin-8-yl)oxy)methyl)phenyl)-1H-1,2,3-triazol-1-yl)-3-methylbutanoyl)-N-((1R,2S)-1-(4-(1-ethyl-1H-pyrazol-5-yl)phenyl)-2-hydroxypropyl)-4-hydroxypyrrolidine-2-carboxamide], for which the DC50 on KRAS (G12D) was < 10 nM. Also, the IC50 in the test on AsPC-1 cells (Homo sapiens, ASPC1, 144 h) was < 10 nM.

For the compound `CCn1nccc1-c1ccc([C@@H](NC(=O)[C@@H]2C[C@@H](O)CN2C(=O)[C@H](C(C)C)n2cc(-c3ccc(COc4c(-c5c(C)c(F)cc6n[nH]cc56)c(C5CC5)cc5c(N6C[C@@H]7C[C@H]6CN7)nc(OC6CCOCC6)nc45)cc3)nn2)[C@H](C)O)c2c1CC2` [Example 84, (2S,4R)-1-((2S)-2-(4-(4-(((4-((1S,4S)-2,5-diazabicyclo[2.2.1]heptan-2-yl)-6-cyclopropyl-7-(6-fluoro-5-methyl-1H-indazol-4-yl)-2-((tetrahydro-2H-pyran-4-yl)oxy)quinazolin-8-yl)oxy)methyl)phenyl)-1H-1,2,3-triazol-1-yl)-3-methylbutanoyl)-N-((1R,2S)-1-(5-(1-ethyl-1H-pyrazol-5-yl)bicyclo[4.2.0]octa-1(6),2,4-trien-2-yl)-2-hydroxypropyl)-4-hydroxypyrrolidine-2-carboxamide], the DC50 on KRAS (G12D) is < 10 nM. The IC50 with AsPC-1 cells (Homo sapiens, ASPC1, 144 h) was < 10 nM.

With `CCn1nccc1-c1ccc(CNC(=O)[C@@H]2C[C@@H](O)CN2C(=O)[C@H](C(C)C)n2cc(-c3ccc(COc4c(-c5c(C)c(F)cc6[nH]ncc56)c(C5CC5)cc5c(N6C[C@H]7C[C@@H]6CN7)nc(OC[C@H](C)OC)nc45)cc3)nn2)cc1` (single isomer, unassigned) [Example 7A], the DC50 on KRAS (G12D) was 10 to 100 nM. Further, the IC50 in the test with AsPC-1 cells (Homo sapiens, ASPC1, 144 h) lay within 10 to 100 nM.

`CO[C@@H](C)COc1nc(N2C[C@@H]3C[C@H]2CN3)c2cc(C3CC3)c(-c3c(C)c(F)c(Cl)c4[nH]ncc34)c(OCc3ccc(-c4cn([C@H](C(=O)N5C[C@H](O)C[C@H]5C(=O)N[C@@H](CO)c5ccc(-c6scnc6C)cc5)C(C)C)nn4)cc3)c2n1` [Example 97, (2S,4R)-1-((2S)-2-(4-(4-(((4-((1S,4S)-2,5-diazabicyclo[2.2.1]heptan-2-yl)-7-(7-chloro-6-fluoro-5-methyl-1H-indazol-4-yl)-6-cyclopropyl-2-((S)-2-methoxypropoxy)quinazolin-8-yl)oxy)methyl)phenyl)-1H-1,2,3-triazol-1-yl)-3-methylbutanoyl)-4-hydroxy-N—((R)-2-hydroxy-1-(4-(4-methylthiazol-5-yl)phenyl)ethyl)pyrrolidine-2-carboxamide]: the DC50 at KRAS (G12D) was < 10 nM. In addition, in the test with AsPC-1 cells (Homo sapiens, ASPC1, 144 h), the IC50 was < 10 nM.

As for `CCn1nccc1-c1ccc([C@H](CO)NC(=O)[C@@H]2C[C@@H](O)CN2C(=O)[C@H](C(C)C)n2cc(-c3ccc(COc4c(-c5c(C)c(F)cc6[nH]ncc56)c(C(F)(F)F)cc5c(N6C[C@@H]7C[C@H]6CN7)nc(OC[C@H](C)OC)nc45)cc3)nn2)cc1` [Example 30, (2S,4R)-1-((2S)-2-(4-(4-(((4-((1S,4S)-2,5-diazabicyclo[2.2.1]heptan-2-yl)-7-(6-fluoro-5-methyl-1H-indazol-4-yl)-2-((S)-2-methoxypropoxy)-6-(trifluoromethyl)quinazolin-8-yl)oxy)methyl)phenyl)-1H-1,2,3-triazol-1-yl)-3-methylbutanoyl)-N—((R)-1-(4-(1-ethyl-1H-pyrazol-5-yl)phenyl)-2-hydroxyethyl)-4-hydroxypyrrolidine-2-carboxamide], the DC50 on KRAS (G12D) is < 10 nM. Further, the IC50 with AsPC-1 cells (Homo sapiens, ASPC1, 144 h) was < 10 nM.

On to `CC[C@H](O)[C@H](NC(=O)[C@@H]1C[C@@H](O)CN1C(=O)[C@H](C(C)C)n1cc(-c2ccc(COc3c(-c4c(C)c(F)cc5[nH]ncc45)c(C4CC4)cc4c(N5C[C@@H]6C[C@H]5CN6)nc(OC5CCOCC5)nc34)cc2)nn1)c1ccc(-c2scnc2C)cc1` [Example 139, (2S,4R)-1-((2S)-2-(4-(4-(((4-((1S,4S)-2,5-diazabicyclo[2.2.1]heptan-2-yl)-6-cyclopropyl-7-(6-fluoro-5-methyl-1H-indazol-4-yl)-2-((tetrahydro-2H-pyran-4-yl)oxy)quinazolin-8-yl)oxy)methyl)phenyl)-1H-1,2,3-triazol-1-yl)-3-methylbutanoyl)-4-hydroxy-N-((1R,2S)-2-hydroxy-1-(4-(4-methylthiazol-5-yl)phenyl)butyl)pyrrolidine-2-carboxamide], for which, at KRAS (G12D), the DC50 is < 10 nM. Further, in the test on AsPC-1 cells (Homo sapiens, ASPC1, 144 h), the IC50 is < 10 nM.

`CCn1nccc1-c1ccc([C@H](CO)NC(=O)[C@@H]2C[C@@H](O)CN2C(=O)[C@H](C(C)C)n2cc(-c3ccc(COc4c(-c5c(C)c(F)cc6[nH]ncc56)c(C5CC5)cc5c(N6C[C@@H]7C[C@H]6CN7)nc(OC(COC)C(F)F)nc45)cc3)nn2)cc1` (stereo partly drawn) [Example 83, (2S,4R)-1-((2S)-2-(4-(4-(((4-((1S,4S)-2,5-diazabicyclo[2.2.1]heptan-2-yl)-6-cyclopropyl-2-((1,1-difluoro-3-methoxypropan-2-yl)oxy)-7-(6-fluoro-5-methyl-1H-indazol-4-yl)quinazolin-8-yl)oxy)methyl)phenyl)-1H-1,2,3-triazol-1-yl)-3-methylbutanoyl)-N—((R)-1-(4-(1-ethyl-1H-pyrazol-5-yl)phenyl)-2-hydroxyethyl)-4-hydroxypyrrolidine-2-carboxamide]: the DC50 on KRAS (G12D) was < 10 nM. For the same compound, the IC50 in the test with AsPC-1 cells (Homo sapiens, ASPC1, 144 h) is < 10 nM.

On to `CO[C@@H](C)COc1nc(N2C[C@@H]3C[C@H]2CN3)c2cc(C3CC3)c(-c3c(C)c(F)cc4[nH]ncc34)c(OCc3ccc(-c4cn([C@H](C(=O)N5C[C@H](O)C[C@H]5C(=O)N[C@H](C#Cc5cccc(F)c5)CO)C(C)C)nn4)cc3)c2n1` [Example 77, (2S,4R)-1-((2S)-2-(4-(4-(((4-((1S,4S)-2,5-diazabicyclo[2.2.1]heptan-2-yl)-6-cyclopropyl-7-(6-fluoro-5-methyl-1H-indazol-4-yl)-2-((S)-2-methoxypropoxy)quinazolin-8-yl)oxy)methyl)phenyl)-1H-1,2,3-triazol-1-yl)-3-methylbutanoyl)-N—((R)-4-(3-fluorophenyl)-1-hydroxybut-3-yn-2-yl)-4-hydroxypyrrolidine-2-carboxamide], for which the DC50 at KRAS (G12D) was < 10 nM. For the same compound, the IC50 with AsPC-1 cells (Homo sapiens, ASPC1, 144 h) is < 10 nM.

At KRAS (G12D), `CO[C@@H](C)COc1nc(N2C[C@@H]3C[C@H]2CN3)c2cc(C3CC3)c(-c3c(C)c(F)cc4[nH]ncc34)c(OCc3ccc(-c4cn([C@H](C(=O)N5C[C@H](O)C[C@H]5C(=O)N[C@H](C#Cc5ccccc5Cl)CO)C(C)C)nn4)cc3)c2n1` [Example 64, (2S,4R)-1-((2S)-2-(4-(4-(((4-((1S,4S)-2,5-diazabicyclo[2.2.1]heptan-2-yl)-6-cyclopropyl-7-(6-fluoro-5-methyl-1H-indazol-4-yl)-2-((S)-2-methoxypropoxy)quinazolin-8-yl)oxy)methyl)phenyl)-1H-1,2,3-triazol-1-yl)-3-methylbutanoyl)-N—((R)-4-(2-chlorophenyl)-1-hydroxybut-3-yn-2-yl)-4-hydroxypyrrolidine-2-carboxamide] displayed a DC50 of 10 to 100 nM. The IC50 in the test with AsPC-1 cells (Homo sapiens, ASPC1, 144 h) was in the range of 10 to 100 nM.

Turning to `CCn1nccc1-c1ccc([C@H](CO)NC(=O)[C@@H]2C[C@@H](O)CN2C(=O)[C@H](C(C)C)n2cc(-c3ccc(COc4c(-c5c(C)c(F)cc6[nH]ncc56)c(C5CC5)cc5c(N6C[C@@H]7C[C@H]6CN7)nc(OCC6(C(F)F)CCOCC6)nc45)cc3)nn2)cc1` [Example 65, (2S,4R)-1-((2S)-2-(4-(4-(((4-((1S,4S)-2,5-diazabicyclo[2.2.1]heptan-2-yl)-6-cyclopropyl-2-((4-(difluoromethyl)tetrahydro-2H-pyran-4-yl)methoxy)-7-(6-fluoro-5-methyl-1H-indazol-4-yl)quinazolin-8-yl)oxy)methyl)phenyl)-1H-1,2,3-triazol-1-yl)-3-methylbutanoyl)-N—((R)-1-(4-(1-ethyl-1H-pyrazol-5-yl)phenyl)-2-hydroxyethyl)-4-hydroxypyrrolidine-2-carboxamide], the DC50 on KRAS (G12D) was < 10 nM. The IC50 in the test with AsPC-1 cells (Homo sapiens, ASPC1, 144 h) was < 10 nM.

`CO[C@@H](C)COc1nc(N2CC3CCC(C2)N3)c2cc(C3CC3)c(-c3c(C)c(F)cc4[nH]ncc34)c(OCc3ccc(-c4cn([C@H](C(=O)N5C[C@H](O)C[C@H]5C(=O)N[C@@H](CO)c5ccc(-c6scnc6C)cc5)C(C)C)nn4)cc3)c2n1` (single isomer, unassigned) [Example 12A]: the DC50 on KRAS (G12D) was in the range of 10 to 100 nM. In the test with AsPC-1 cells (Homo sapiens, ASPC1, 144 h), this compound gave a 50% inhibitory concentration (IC50) of 10 to 100 nM.

Turning to `CCn1nccc1-c1ccc([C@H](CO)NC(=O)[C@@H]2C[C@@H](O)CN2C(=O)[C@H](C(C)C)n2cc(-c3ccc(COc4c(-c5c(C)c(F)cc6[nH]ncc56)c(C5CC5)cc5c(N6C[C@H]7C[C@@H]6CN7)nc(OC[C@H](C)OC)nc45)cc3)nn2)cc1` (single isomer, unassigned) [Example 1B], the DC50 on KRAS (G12D) is > 1000 nM. Moreover, in the test with AsPC-1 cells, the IC50 was > 1000 nM.

Turning to `CCn1nccc1-c1ccc([C@H](CO)NC(=O)[C@@H]2C[C@@H](O)CN2C(=O)[C@H](C(C)C)n2cc(-c3ccc(COc4c(-c5c(C)c(F)cc6[nH]ncc56)c(C5CC5)cc5c(N6C[C@@H]7C[C@H]6CN7)nc(OC6CC7(COC7)C6)nc45)cc3)nn2)cc1` [Example 69, (2S,4R)-1-((2S)-2-(4-(4-(((2-((2-oxaspiro[3.3]heptan-6-yl)oxy)-4-((1S,4S)-2,5-diazabicyclo[2.2.1]heptan-2-yl)-6-cyclopropyl-7-(6-fluoro-5-methyl-1H-indazol-4-yl)quinazolin-8-yl)oxy)methyl)phenyl)-1H-1,2,3-triazol-1-yl)-3-methylbutanoyl)-N—((R)-1-(4-(1-ethyl-1H-pyrazol-5-yl)phenyl)-2-hydroxyethyl)-4-hydroxypyrrolidine-2-carboxamide], at KRAS (G12D), the DC50 was < 10 nM. In addition, the IC50 with AsPC-1 cells (Homo sapiens, ASPC1, 144 h) was < 10 nM.

In general, DC50 refers to the concentration giving 50% degradation. A high value points to a less potent degrader. What is called IC50 is the concentration needed to halve the response being measured. Read a high IC50 as weaker potency.
